Molecules are shown by their SMILES. Like-named read-outs stand apart in the source and are kept apart here.

This note sets out measurements from patent US9725442B2, “Heterocyclic derivative having PGD2 receptor antagonist activity” (Shionogi & Co., Ltd., priority 2011, dated 2017).

For assay [1], the target named is Human DP1 receptor (Homo sapiens (Human), UniProt Q13258). The experiment in a line: Human DP1 inhibitory activity in DP1-expressing cell (PGD2-induced cAMP). It counts as cell-based. The protocol:
Compounds were categorized as AA (cAMP is less than 100 nM) and A (cAMP is more than 100 nM and less than 5000 nM) as shown in Table 99 and 100.

Assay [2] concerns the target CRTH2 (Homo sapiens (Human), UniProt Q9Y5Y4). Briefly: CRTH2 receptor binding inhibitory activity ([3H]-PGD2 displacement, membranes of CRTH2-expressing K562 cell). As to conditions: [3H]-PGD2 displacement, membrane of CRTH2-expressing K562 cell, read-out: Ki. The gist of the method: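 Incubation ran 60 min at room temperature using 20 μg/well membrane from CRTH2-expressing K562 cells in pH 7.4 Tris/HCl (50 mM) with 10 mM MgCl2.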

Where [3] appears, read: category of cAMP IC50, human DP1 receptor expressing Jurkut cell.
Where [4] appears, read: CRTH2 receptor binding, categorized AAAA/AAA.
The mark [5] stands for this setting: IC50 of PGD2 (60 nM)-induced cAMP increase, human DP1 receptor expressing Jurkut cell.

CRTH2, sequence (Q9Y5Y4 whole entry): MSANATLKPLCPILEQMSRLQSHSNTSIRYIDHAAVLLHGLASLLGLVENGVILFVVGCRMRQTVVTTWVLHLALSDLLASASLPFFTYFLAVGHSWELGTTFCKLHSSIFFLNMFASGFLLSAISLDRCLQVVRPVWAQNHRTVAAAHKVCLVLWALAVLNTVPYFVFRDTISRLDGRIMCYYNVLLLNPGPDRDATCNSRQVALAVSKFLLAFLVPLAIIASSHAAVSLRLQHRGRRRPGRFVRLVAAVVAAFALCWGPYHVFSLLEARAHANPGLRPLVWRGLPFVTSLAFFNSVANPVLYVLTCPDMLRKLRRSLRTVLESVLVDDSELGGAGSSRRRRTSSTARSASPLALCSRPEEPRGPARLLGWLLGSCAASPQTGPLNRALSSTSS
Human DP1 receptor, sequence (Q13258 whole entry): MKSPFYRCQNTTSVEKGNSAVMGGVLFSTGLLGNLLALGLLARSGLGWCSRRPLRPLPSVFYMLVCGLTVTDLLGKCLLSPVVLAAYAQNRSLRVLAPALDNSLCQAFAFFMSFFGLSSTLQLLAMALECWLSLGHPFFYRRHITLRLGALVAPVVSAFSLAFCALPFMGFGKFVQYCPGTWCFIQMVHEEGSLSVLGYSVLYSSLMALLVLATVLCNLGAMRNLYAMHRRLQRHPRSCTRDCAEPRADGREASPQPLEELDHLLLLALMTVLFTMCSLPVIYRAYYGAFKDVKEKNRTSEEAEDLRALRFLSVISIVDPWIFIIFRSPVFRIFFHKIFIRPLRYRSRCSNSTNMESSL

In turn, `CCOc1ccc(S(=O)(=O)N2C[C@@H](C)[C@@H](n3cc(CC(=O)O)c4ccc(-c5ncco5)cc43)C2)cc1` [Compound I-282] displayed an IC50 in assay [1] (setting [3]) of 100 to 5000 nM. Moreover, the inhibitory constant (Ki) is under 100 nM in assay [2] (setting [4]) and 10 nM in assay [2].

Compound `CCOc1ccc(S(=O)(=O)N2C[C@@H](C)[C@@H](n3nc(C(C)(O)C(=O)O)c4ccccc43)C2)cc1` (stereo partly shown) [Compound I-283] came in with an IC50 in assay [1] (setting [3]) of under 100 nM. The Ki in assay [2] (setting [4]) was in the range of 100 to 5000 nM.

As to `CCOc1ccc(S(=O)(=O)N2C[C@@H](C)[C@@H](n3nc(C(C)(OC)C(=O)O)c4ccccc43)C2)cc1` (stereo partly shown) [Compound I-285], in assay [1] (setting [3]), the IC50 was 100 to 5000 nM. Moreover, the Ki in assay [2] (setting [4]) was 100 to 5000 nM.

As to `Cc1ccc(S(=O)(=O)N2C[C@@H](C)[C@@H](n3c(C)c(CC(=O)O)c4ccccc43)C2)cc1` [Compound I-288], the IC50 in assay [1] (setting [5]) is 100 nM; in assay [1] (setting [3]) it was 100 to 5000 nM. Further, the Ki is under 100 nM in assay [2] (setting [4]) and 40 nM in assay [2].

As for `CC(C)Oc1ccc(S(=O)(=O)N2C[C@H](n3nc(CC(=O)O)c4ccc(F)cc43)C[C@@H]2COCCCOc2ccccc2)cc1` [Compound I-289], the IC50 in assay [1] (setting [3]) was 100 to 5000 nM. Moreover, in assay [2] (setting [4]), the Ki was in the range of 100 to 5000 nM.

Compound `CCOc1ccc(S(=O)(=O)N2C[C@@H](C)[C@@H](n3nc(C(F)(F)C(=O)O)c4ccccc43)C2)cc1` [Compound I-290] registered an IC50 in assay [1] (setting [3]) of under 100 nM. In addition, in assay [2] (setting [4]), the Ki fell in the range of 100 to 5000 nM.

`COCCOCCOC[C@H]1C[C@@H](n2nc(CC(=O)O)c3ccc(F)cc32)CN1S(=O)(=O)c1ccc(OC(C)C)cc1` [Compound I-291]: in assay [1] (setting [3]), the IC50 was in the range of 100 to 5000 nM. Besides, the Ki in assay [2] (setting [4]) was in the range of 100 to 5000 nM.

Turning to `CC(C)Oc1ccc(S(=O)(=O)N2C[C@H](n3nc(CC(=O)O)c4ccc(F)cc43)C[C@@H]2COc2ccccc2O)cc1` [Compound I-292], the IC50 in assay [1] (setting [3]) was under 100 nM. The Ki in assay [2] (setting [4]) lay within 100 to 5000 nM.

`CCOc1ccc(S(=O)(=O)N2C[C@H](n3nc(CC(=O)O)c4ccccc43)[C@H](C)[C@H]2C#N)cn1` [Compound I-293] registered an IC50 in assay [1] (setting [3]) of 100 to 5000 nM. Further, the Ki in assay [2] (setting [4]) was 100 to 5000 nM.

`CCOc1ccc(S(=O)(=O)N2C[C@@H](n3nc(CC(=O)O)c4ccccc43)[C@H](C)[C@H]2C#N)cc1` [Compound I-294]: in assay [1] (setting [3]), the IC50 lay in the range of 100 to 5000 nM. Besides, the Ki in assay [2] (setting [4]) was in the range of 100 to 5000 nM.

The compound `CC(C)Oc1ccc(S(=O)(=O)N2C[C@H](n3nc(CC(=O)O)c4ccc(F)cc43)C[C@@H]2COc2cccc(I)c2)cc1` [Compound I-295] had an IC50 in assay [1] (setting [3]) of under 100 nM. The Ki in assay [2] (setting [4]) fell in the range of 100 to 5000 nM.

Compound `CCOc1ccc(S(=O)(=O)N2C[C@@H](C)[C@@H](n3nc(Cc4noc(=O)[nH]4)c4ccccc43)C2)cc1` [Compound I-296] had an IC50 in assay [1] (setting [3]) of 100 to 5000 nM. In assay [2] (setting [4]), the inhibition constant Ki lay within 100 to 5000 nM.

Take `CCOc1ccc(S(=O)(=O)N2C[C@@H](C)[C@@H](n3nc(CC4=NNC(=O)C4)c4ccccc43)C2)cc1` [Compound I-297]: the IC50 in assay [1] (setting [3]) is 100 to 5000 nM. The Ki in assay [2] (setting [4]) was in the range of 100 to 5000 nM.

On to `CCOc1ccc(S(=O)(=O)N2C[C@H](n3nc(CC(=O)O)c4ccccc43)[C@@H](C)[C@@H]2C(N)=O)cc1` [Compound I-298], for which the IC50 in assay [1] (setting [3]) lay within 100 to 5000 nM. In assay [2] (setting [4]), the Ki fell in the range of 100 to 5000 nM.

The compound `CC(C)Oc1ccc(S(=O)(=O)N2C[C@H](n3nc(CC(=O)O)c4ccc(F)cc43)C[C@@H]2Cn2ncnn2)cc1` [Compound I-299] yielded an IC50 in assay [1] (setting [3]) of 100 to 5000 nM. Moreover, in assay [2] (setting [4]), the Ki was 100 to 5000 nM.

The compound `CC(C)Oc1ccc(S(=O)(=O)N2C[C@H](n3nc(CC(=O)O)c4ccc(F)cc43)C[C@H]2COc2nc3ccccc3s2)cc1` [Compound I-300] came in with an IC50 in assay [1] (setting [3]) of 100 to 5000 nM. The Ki in assay [2] (setting [4]) is under 100 nM.

Consider `CC(C)Oc1ccc(S(=O)(=O)N2C[C@@H](n3nc(CC(=O)O)c4ccc(F)cc43)C[C@@H]2c2ccccc2F)cc1` [Compound I-301], for which the IC50 in assay [1] (setting [3]) was in the range of 100 to 5000 nM. In addition, the Ki in assay [2] (setting [4]) fell in the range of 100 to 5000 nM.

Turning to `CC(C)Oc1ccc(S(=O)(=O)N2C[C@H](n3nc(CC(=O)O)c4ccc(F)cc43)C[C@@H]2c2ccccc2F)cc1` [Compound I-302], the IC50 in assay [1] (setting [3]) is 100 to 5000 nM. Besides, the Ki in assay [2] (setting [4]) lay in the range of 100 to 5000 nM.

The compound `CC(C)Oc1ccc(S(=O)(=O)N2C[C@H](n3nc(CC(=O)O)c4ccc(F)cc43)C[C@@H]2COc2cccc(F)c2)cc1` [Compound I-303] registered an IC50 in assay [1] (setting [3]) of under 100 nM. For the same compound, the Ki in assay [2] (setting [4]) is 100 to 5000 nM.

Consider `CCOc1ccc(S(=O)(=O)N2C[C@H](n3nc(CC(=O)O)c4ccccc43)[C@@H](C)[C@@H]2C#N)cc1` [Compound I-304], for which, in assay [1] (setting [3]), the IC50 was under 100 nM. The Ki in assay [2] (setting [4]) was under 100 nM.

In turn, `CCS(=O)(=O)CCOc1ccc(S(=O)(=O)N2C[C@@H](C)[C@@H](n3nc(CC(=O)O)c4ccccc43)C2)cc1` [Compound I-305] displayed an IC50 in assay [1] (setting [3]) of 100 to 5000 nM. Further, in assay [2] (setting [4]), the Ki was in the range of 100 to 5000 nM.

`CCSCCOc1ccc(S(=O)(=O)N2C[C@@H](C)[C@@H](n3nc(CC(=O)O)c4ccccc43)C2)cc1` [Compound I-308] gave an IC50 in assay [1] (setting [3]) of under 100 nM. In assay [2] (setting [4]), the Ki is under 100 nM.

For the compound `CCOc1ccc(S(=O)(=O)N2C[C@@H](n3nc(CC(=O)O)c4ccccc43)[C@](C)(F)C2)cc1` [Compound I-310], the IC50 in assay [1] (setting [3]) lay in the range of 100 to 5000 nM. In assay [2] (setting [4]), the Ki fell in the range of 100 to 5000 nM.

`CCOc1ccc(S(=O)(=O)N2C[C@@H](C)[C@@H](n3nc(CC(=O)NO)c4ccccc43)C2)cc1` [Compound I-311] displayed an IC50 in assay [1] (setting [3]) of 100 to 5000 nM. Besides, in assay [2] (setting [4]), the Ki lay within 100 to 5000 nM.

`CCOc1ccc(S(=O)(=O)N2C[C@@H](C)[C@@H](n3nc(CC(=O)O)c4ccccc43)C2)c(C(C)O)c1` (stereo partly shown) [Compound I-312] displayed an IC50 in assay [1] (setting [3]) of under 100 nM. Besides, the Ki in assay [2] (setting [4]) is under 100 nM.

Regarding `CCOc1ccc(S(=O)(=O)N2C[C@H](F)[C@@H](n3nc(CC(=O)O)c4ccccc43)C2)cc1` [Compound I-313], the IC50 in assay [1] (setting [3]) was in the range of 100 to 5000 nM. Moreover, the Ki in assay [2] (setting [4]) was under 100 nM.

For `CCOc1ccc(S(=O)(=O)N2C[C@@H](C)[C@@H](n3nc(CC(=O)O)c4ccccc43)C2)c(CCO)c1` [Compound I-314], the IC50 in assay [1] (setting [3]) was 100 to 5000 nM. In addition, the Ki in assay [2] (setting [4]) was under 100 nM.

`CCOc1ccc(S(=O)(=O)N2C[C@H](n3c(C)c(CC(=O)O)c4ccccc43)C[C@@H]2C)cc1` [Compound I-315] registered an IC50 in assay [1] (setting [3]) of under 100 nM. For the same compound, in assay [2] (setting [4]), the Ki fell in the range of 100 to 5000 nM.

Turning to `Cc1c(CC(=O)O)c2ccccc2n1[C@@H]1C[C@H](C)N(S(=O)(=O)c2ccc(OC(F)F)cc2)C1` [Compound I-316], the IC50 in assay [1] (setting [5]) is 110 nM; in assay [1] (setting [3]), 100 to 5000 nM. The Ki in assay [2] (setting [4]) is 100 to 5000 nM; in assay [2], 220 nM.

`Cc1c(CC(=O)O)c2ccccc2n1[C@@H]1C[C@H](C)N(S(=O)(=O)c2ccc(F)cc2)C1` [Compound I-317] registered an IC50 in assay [1] (setting [3]) of 100 to 5000 nM. Moreover, the Ki in assay [2] (setting [4]) was 100 to 5000 nM.

`Cc1ccc(S(=O)(=O)N2C[C@H](n3c(C)c(CC(=O)O)c4ccccc43)C[C@@H]2C)cc1` [Compound I-318] had an IC50 in assay [1] (setting [3]) of 100 to 5000 nM. In addition, the inhibition constant Ki in assay [2] (setting [4]) is 100 to 5000 nM.

In turn, `CCOc1ccc(S(=O)(=O)N2C[C@H](n3nc(CC(=O)O)c4ccccc43)C[C@@H]2C(N)=O)cc1` [Compound I-319] displayed an IC50 in assay [1] (setting [3]) of 100 to 5000 nM. For the same compound, the Ki in assay [2] (setting [4]) was in the range of 100 to 5000 nM.

In the case of `CCOc1ccc(S(=O)(=O)N2C[C@H](n3nc(CC(=O)O)c4ccccc43)C[C@H]2C#N)cc1` [Compound I-320], the IC50 in assay [1] (setting [3]) is under 100 nM. Besides, in assay [2] (setting [4]), the Ki was under 100 nM.

In the case of `C=CCOC[C@H]1C[C@@H](n2nc(CC(=O)O)c3ccc(F)cc32)CN1S(=O)(=O)c1ccc(OC(C)C)cc1` [Compound I-323], the IC50 in assay [1] (setting [3]) lay in the range of 100 to 5000 nM. For the same compound, in assay [2] (setting [4]), the Ki was 100 to 5000 nM.
